# Source: patent publication US8877707B2, “Inhibitors of HCV NS5A” (Presidio Pharmaceuticals, Inc., priority 2010, dated 2014)
# System: HCV genotype 1b replicon in Huh 7 cells
# Experiment: HCV replicon assay (1b_Huh-Luc/Neo-ET cell line, luciferase readout)
# Format: cell-based
# Conditions: Hepatitis C virus; Table 1; genotype 1b replicon, Huh 7 cells, 72 h, luciferase; read-out: Inhibition of HCV genotype 1b
# In short: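 Huh 7 cells carrying a bicistronic genotype 1b luciferase replicon were treated with compound in triplicate the day after plating and incubated 72 h. Luciferase activity expressed as % of untreated control; EC50 from a four-parameter logistic fit, repeated several times.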
row,Structure (SMILES),EC50 [nM]
1,CCC(CC)[C@H](NC(=O)OC)C(=O)N1CCC[C@H]1c1ncc(-c2ccc(-c3ccc4cc(-c5cnc([C@@H]6CCCN6C(=O)[C@@H](NC(=O)OC)C(CC)CC)[nH]5)ccc4c3)cc2)[nH]1 [compound 171],< 1
2,COC(=O)N[C@H](C(=O)N1CCC[C@H]1c1ncc(-c2ccc(-c3ccc4cc(-c5cnc([C@@H]6CCCN6C(=O)[C@@H](NC(=O)OC)C6CCCC6)[nH]5)ccc4c3)cc2)[nH]1)C1CCCC1 [compound 172],< 1
3,CC[C@H](NC(=O)OC)C(=O)N1CCC[C@H]1c1ncc(-c2ccc(-c3ccc4cc(-c5cnc([C@@H]6CCCN6C(=O)[C@H](CC)NC(=O)OC)[nH]5)ccc4c3)cc2)[nH]1 [compound 173],< 1
4,COC(=O)N[C@H](C(=O)N1CCC[C@H]1c1ncc(-c2ccc3cc(-c4ccc5nc([C@@H]6CCCN6C(=O)[C@@H](NC(=O)OC)C(C)C)[nH]c5c4)ccc3c2)[nH]1)C(C)C [compound 174],< 1
5,COC(=O)N[C@H](C(=O)N1CCC[C@H]1c1ncc(-c2ccc3cc(-c4ccc5nc([C@@H]6CCCN6C(=O)[C@@H](NC(=O)OC)[C@@H](C)O)[nH]c5c4)ccc3c2)[nH]1)[C@@H](C)O [compound 175],< 1
6,COC(=O)N[C@H](C(=O)N1CCC[C@H]1c1ncc(-c2ccc3cc(-c4ccc5nc([C@@H]6CCCN6C(=O)[C@@H](NC(=O)OC)[C@@H](C)OC)[nH]c5c4)ccc3c2)[nH]1)[C@@H](C)OC [compound 176],< 1
7,COC(=O)N[C@H](C(=O)N1CCC[C@H]1c1ncc(-c2ccc3cc(-c4ccc5nc([C@@H]6CCCN6C(=O)[C@@H](c6ccccc6)N(C)C)[nH]c5c4)ccc3c2)[nH]1)C(C)C [compound 177],< 1
8,COC(=O)N[C@H](C(=O)N1CCC[C@H]1c1nc2ccc(-c3ccc4cc(-c5cnc([C@@H]6CCCN6C(=O)[C@@H](c6ccccc6)N6CCCC6)[nH]5)ccc4c3)cc2[nH]1)C(C)C [compound 178],< 1
9,COC(=O)N[C@H](C(=O)N1CCC[C@H]1c1nc2ccc(-c3ccc4cc(-c5cnc([C@@H]6CCCN6C(=O)[C@H](NC(=O)OC)c6ccccc6)[nH]5)ccc4c3)cc2[nH]1)C(C)C [compound 179],< 1
10,COC(=O)N[C@H](C(=O)N1CCC[C@H]1c1ncc(-c2ccc3cc(-c4ccc5nc([C@@H]6CCCN6C(=O)[C@@H](c6ccccc6)N6CCCC6)[nH]c5c4)ccc3c2)[nH]1)C(C)C [compound 180],< 1
11,COC(=O)N[C@H](C(=O)N1CCC[C@H]1c1ncc(-c2ccc3cc(-c4ccc5nc([C@@H]6CCCN6C(=O)[C@H](NC(=O)OC)c6ccccc6)[nH]c5c4)ccc3c2)[nH]1)C(C)C [compound 181],< 1
12,COC(=O)N[C@H](C(=O)N1CCC[C@H]1c1nc2ccc(-c3ccc4cc(-c5cnc([C@@H]6CCCN6C(=O)[C@@H](c6ccccc6)N(C)C)[nH]5)ccc4c3)cc2[nH]1)C(C)C [compound 182],< 1
13,COC(=O)N[C@H](C(=O)N1CCC[C@H]1c1nc2ccc(-c3ccc4cc(-c5cnc([C@@H]6CCCN6C(=O)[C@H](NC(=O)N6CC[C@H](O)C6)c6ccccc6)[nH]5)ccc4c3)cc2[nH]1)C(C)C [compound 183],< 1
14,COC(=O)N[C@H](C(=O)N1CCC[C@H]1c1ncc(-c2ccc3cc(-c4ccc5nc([C@@H]6CCCN6C(=O)[C@H](NC(=O)N6CC[C@H](O)C6)c6ccccc6)[nH]c5c4)ccc3c2)[nH]1)C(C)C [compound 185],< 1
15,CNC(=O)N[C@@H](C(=O)N1CCC[C@H]1c1ncc(-c2ccc3cc(-c4ccc5nc([C@@H]6CCCN6C(=O)[C@@H](NC(=O)OC)C(C)C)[nH]c5c4)ccc3c2)[nH]1)c1ccccc1 [compound 186],< 1
16,COC(=O)N[C@H](C(=O)N1CCC[C@H]1c1ncc(-c2cnc3cc(-c4ccc5nc([C@@H]6CCCN6C(=O)[C@@H](NC(=O)OC)C(C)C)[nH]c5c4)ccc3c2)[nH]1)C(C)C [compound 187],< 1
17,COC(=O)N[C@H](C(=O)N1CCC[C@H]1c1ncc(-c2cnc3cc(-c4ccc5nc([C@@H]6CCCN6C(=O)[C@H](NC(=O)OC)c6ccccc6)[nH]c5c4)ccc3c2)[nH]1)C(C)C [compound 188],1 to 9.9
18,COC(=O)N[C@H](C(=O)N1CCC[C@H]1c1ncc(-c2ccc3cc(-c4ccc5nc([C@@H]6CCCN6C(=O)[C@@H](NC(=O)OC)C6CCOCC6)[nH]c5c4)ccc3c2)[nH]1)C(C)C [compound 189],< 1
19,COC(=O)N[C@H](C(=O)N1CCC[C@H]1c1nc2ccc(-c3ccc4cc(-c5cnc([C@@H]6CCCN6C(=O)[C@@H](NC(=O)OC)C6CCOCC6)[nH]5)ccc4c3)cc2[nH]1)C(C)C [compound 190],< 1
20,COC(=O)N[C@H](C(=O)N1CCC[C@H]1c1nc2ccc(-c3ccc4cc(-c5cnc([C@@H]6CCCN6C(=O)[C@@H](NC(=O)OC)C6CCOCC6)[nH]5)cnc4c3)cc2[nH]1)C(C)C [compound 191],< 1
21,COC(=O)N[C@H](C(=O)N1CCC[C@H]1c1ncc(-c2cnc3cc(-c4ccc5nc([C@@H]6CCCN6C(=O)[C@@H](NC(=O)OC)C6CCOCC6)[nH]c5c4)ccc3c2)[nH]1)C(C)C [compound 192],< 1

row,Structure (SMILES),EC50 [nM]
1,COC(=O)N[C@H](C(=O)N1CCC[C@H]1c1ncc(-c2ccc3nc(-c4ccc5nc([C@@H]6CCCN6C(=O)[C@@H](NC(=O)OC)C(C)C)[nH]c5c4)ccc3c2)[nH]1)C(C)C [compound 193],< 1
2,COC(=O)N[C@H](C(=O)N1CCC[C@H]1c1nc2ccc(-c3ccc4cc(-c5cnc([C@@H]6CCCN6C(=O)[C@@H](NC(=O)OC)C6CCOCC6)[nH]5)ccc4n3)cc2[nH]1)C(C)C [compound 194],< 1
3,COC(=O)N[C@H](C(=O)N1CCC[C@H]1c1nc2ccc(-c3ccc4cc(-c5cnc([C@@H]6CCCN6C(=O)[C@H](NC(=O)OC)c6ccccc6)[nH]5)cnc4c3)cc2[nH]1)C(C)C [compound 195],< 1
4,COC(=O)N[C@H](C(=O)N1CCC[C@H]1c1nc2ccc(-c3ccc4cc(-c5cnc([C@@H]6CCCN6C(=O)[C@H](NC(=O)OC)c6ccccc6)[nH]5)ccc4n3)cc2[nH]1)C(C)C [compound 196],< 1
5,COC(=O)N[C@H](C(=O)N1CCC[C@H]1c1ncc(-c2ccc3nc(-c4ccc5nc([C@@H]6CCCN6C(=O)[C@H](NC(=O)OC)c6ccccc6)[nH]c5c4)ccc3c2)[nH]1)C(C)C [compound 197],< 1
6,COC(=O)N[C@H](C(=O)N1CCC[C@H]1c1ncc(-c2ccc3cc(-c4ccc5nc([C@@H]6CCCN6C(=O)[C@@H](NC(=O)OC)C(C)C)[nH]c5n4)ccc3c2)[nH]1)C(C)C [compound 198],< 1
7,COC(=O)N[C@H](C(=O)N1CCC[C@H]1c1ncc(-c2ccc3cc(-c4ccc5nc([C@@H]6CCCN6C(=O)[C@H](NC(=O)OC)c6ccccc6)[nH]c5n4)ccc3c2)[nH]1)C(C)C [compound 199],< 1
8,COC(=O)N[C@H](C(=O)N1CCC[C@H]1c1nc2ccc(-c3ccc4cc(-c5cnc([C@@H]6CCCN6C(=O)[C@H](NC(=O)OC)c6ccccc6)[nH]5)ccc4c3)nc2[nH]1)C(C)C [compound 200],< 1
9,COC(=O)N[C@H](C(=O)N1CCC[C@H]1c1nc2ccc(-c3ccc4cc(-c5cnc([C@@H]6CCCN6C(=O)[C@@H](NC(=O)OC)C6CCOCC6)[nH]5)ccc4c3)nc2[nH]1)C(C)C [compound 201],< 1
10,COC(=O)N[C@H](C(=O)N1CCC[C@H]1c1ncc(-c2ccc3cc(-c4ccc5nc([C@@H]6CCCN6C(=O)[C@@H](NC(=O)OC)C6CCOCC6)[nH]c5n4)ccc3c2)[nH]1)C(C)C [compound 202],< 1
11,COC(=O)N[C@H](C(=O)N1CCC[C@H]1c1ncc(-c2ccc3cc(-c4ccc5nc([C@@H]6CCCN6C(=O)[C@@H](NC(=O)OC)C6CCOCC6)[nH]c5c4)ccc3c2)[nH]1)C1CCOCC1 [compound 203],< 1
12,COC(=O)N[C@H](C(=O)N1CCC[C@H]1c1ncc(-c2ccc3cc(-c4ccc5nc([C@@H]6CCCN6C(=O)[C@@H](NC(=O)OC)C(C)C)[nH]c5c4)ncc3c2)[nH]1)C(C)C [compound 204],< 1
13,COC(=O)N[C@H](C(=O)N1CCC[C@H]1c1ncc(-c2ccc3cc(-c4ccc5nc([C@@H]6CCCN6C(=O)[C@@H](NC(=O)OC)C6CCOCC6)[nH]c5n4)ccc3c2)[nH]1)C1CCOCC1 [compound 205],< 1
14,COC(=O)N[C@H](C(=O)N1CCC[C@H]1c1ncc(-c2ccc3nc(-c4ccc5nc([C@@H]6CCCN6C(=O)[C@@H](NC(=O)OC)C6CCOCC6)[nH]c5c4)ccc3c2)[nH]1)C1CCOCC1 [compound 206],1 to 9.9
15,COC(=O)N[C@H](C(=O)N1CCC[C@H]1c1ncc(-c2cccc3c(-c4ccc5nc([C@@H]6CCCN6C(=O)[C@@H](NC(=O)OC)C(C)C)[nH]c5c4)cccc23)[nH]1)C(C)C [compound 207],< 1
16,COC(=O)N[C@H](C(=O)N1CCC[C@H]1c1nc2ccc(-c3cccc4c(-c5cnc([C@@H]6CCCN6C(=O)[C@H](NC(=O)OC)c6ccccc6)[nH]5)cccc34)cc2[nH]1)C(C)C [compound 208],< 1
17,COC(=O)N[C@H](C(=O)N1CCC[C@H]1c1ncc(-c2ccc3cc(-c4ccc5nc([C@@H]6CCCN6C(=O)[C@@H](NC(=O)OC)C(C)C)[nH]c5c4)ccc3n2)[nH]1)C(C)C [compound 209],< 1
18,COC(=O)N[C@H](C(=O)N1CCC[C@H]1c1nc2ccc(-c3ccc4nc(-c5cnc([C@@H]6CCCN6C(=O)[C@H](NC(=O)OC)c6ccccc6)[nH]5)ccc4c3)cc2[nH]1)C(C)C [compound 210],< 1
19,COC(=O)N[C@H](C(=O)N1CCC[C@H]1c1nc2ccc(-c3ccc4nc(-c5cnc([C@@H]6CCCN6C(=O)[C@@H](NC(=O)OC)C6CCOCC6)[nH]5)ccc4c3)cc2[nH]1)C(C)C [compound 211],< 1
20,COC(=O)N[C@H](C(=O)N1CCC[C@H]1c1nc2ccc(-c3ccc4cc(-c5cnc([C@@H]6CCCN6C(=O)[C@H](NC(=O)OC)c6ccccc6)[nH]5)ccc4c3)cc2[nH]1)C1CCOCC1 [compound 212],< 1
21,COC(=O)N[C@H](C(=O)N1CCC[C@H]1c1ncc(-c2ccc3cc(-c4ccc5nc([C@@H]6CCCN6C(=O)[C@@H](c6ccccc6)N6CCOCC6)[nH]c5c4)ccc3c2)[nH]1)C(C)C [compound 213],< 1
